Measurements: PMC6203605 (Journal of biological inorganic chemistry : JBIC : a …, 2018)

Columns and labels:
[1] = target: HemO (Pseudomonas aeruginosa, UniProt G3XCZ8); assay: intrinsic fluorescence quenching; assay type: binding
[2] = target: HemO (Pseudomonas aeruginosa, UniProt G3XCZ8, D99A); assay: biochemical
[3] = target: HemO (Pseudomonas aeruginosa, UniProt G3XCZ8, D99A/R188A); assay: biochemical
[4] = target: HemO (Pseudomonas aeruginosa, UniProt G3XCZ8, R188A); assay: biochemical

C=CC1=C(C)C2=Cc3c(C=C)c(C)c4[n]3[Fe]([Cl])[n]3c(c(C)c(CCC(=O)O)c3=CC3=NC(=C4)C(C)=C3CCC(=O)O)=CC1=N2 [heme] gave a Kd [1] of 870 ± 170 nM, a Kd [2] of 830 ± 210 nM and a Kd [3] of 990 ± 210 nM. For the same molecule, the Kd [4] was 790 ± 220 nM.
